Measurements published in US11096930B2, “Substituted imidazopyridine compounds as inhibitors of indoleamine 2,3-dioxygenase and/or tryptophan-2,3-dioxygenase” (IOMet Pharma Ltd., priority 2016, dated 2021).

Columns and labels:
[1] = molecular target: T1, IDO (Homo sapiens (Human), UniProt P14902); assay: hIDO biochemical coupled assay; settings: 45 μM L-tryptophan
Description: (§1) Exemplary compounds disclosed herein were prepared, and tested to determine their effect as IDO and/or TDO inhibitors. Two different assays were employed: 1. a cell-based assay for detecting the effect of test compounds on kynurenine production in two different cancer cell types. This assay utilized cancer cells which expressed either TDO or IDO and as such was used as a means of testing compound activity at these two enzymes in a cell-based context. 2. a TDO and IDO biochemical coupled assay which utilized recombinantly produced and purified TDO and IDO enzymes in combination with the enzyme formamidase. This coupled enzyme system allowed conversion of N-formylkynurenine produced by TDO or IDO activity to kynurenine which was then quantified by fluorescence following addition of Erhlich's Reagent. The protocols for these are set out below.
(§2) TDO and IDO Biochemical Coupled Assay
(§3) Recombinant human IDO or TDO was incubated in 50 mM KPO4 (pH 7.0), 0.5 mM EGTA, 0.5 mM EDTA, 0.05% Triton™ X100, 20 mM ascorbate, 10 μM methylene blue, 500 U/ml catalase, 50 μg/ml KynB (kynurenine formamidase). […] After incubation for 17 minutes at room temperature the reactions were stopped by the addition of Erhlich's reagent and incubated at room temperature for 5 minutes before the fluorescence was read.

[2] = molecular target: T1, IDO; assay: SKOV3 (IDO) cell based assay for detection of kynurenine; settings: SKOV3 cells, IDO induced by IFN-γ, 48 hours, read-out: pIC50 SKOV3 (IDO) cell based assay (converted)
Description: as §1
(§4) A172 and SKOV3 Cell Based Assays for Detection of Kynurenine Produced by TDO and/or IDO
(§5) A172 (human glioblastoma) and SKOV3 (human ovarian adenocarcinoma) cells were seeded in a 96 well plate at 30,000 or 40,000 cells per well respectively in phenol red-free RPMI supplemented with 10% FCS, 2 mM L-glutamine and 500 μM L-tryptophan. IDO expression was induced in the SKOV3 cells by the addition of 500 ng/ml IFN-γ. Cells were incubated at 37° C. with or without the addition of test compound. After 48 hours, the cells were removed by centrifugation and Erhlich's reagent was added to the supernatant.

[3] = molecular target: T2, TDO (Homo sapiens (Human), UniProt P48775); assay: A172 (TDO) cell based assay for detection of kynurenine; settings: A172 cells, 48 hours, read-out: pIC50 A172 (TDO) cell based assay (converted)
T2 sequence (P48775 whole entry): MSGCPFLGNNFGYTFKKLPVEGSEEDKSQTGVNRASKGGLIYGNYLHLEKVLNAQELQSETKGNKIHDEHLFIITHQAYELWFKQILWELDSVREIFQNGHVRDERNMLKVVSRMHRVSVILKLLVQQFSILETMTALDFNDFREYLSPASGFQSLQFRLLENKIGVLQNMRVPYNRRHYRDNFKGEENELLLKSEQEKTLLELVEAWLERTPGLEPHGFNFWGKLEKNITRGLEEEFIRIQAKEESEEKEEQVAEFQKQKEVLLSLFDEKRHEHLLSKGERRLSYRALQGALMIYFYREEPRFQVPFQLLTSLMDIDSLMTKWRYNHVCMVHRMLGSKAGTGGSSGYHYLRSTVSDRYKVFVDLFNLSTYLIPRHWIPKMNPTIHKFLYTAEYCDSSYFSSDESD
Description: as §1, §4, §5

[4] = molecular target: T2, TDO; assay: hTDO biochemical coupled assay; settings: 330 μM L-tryptophan
Description: as §1, §2, §3

T1 sequence (P14902 whole entry): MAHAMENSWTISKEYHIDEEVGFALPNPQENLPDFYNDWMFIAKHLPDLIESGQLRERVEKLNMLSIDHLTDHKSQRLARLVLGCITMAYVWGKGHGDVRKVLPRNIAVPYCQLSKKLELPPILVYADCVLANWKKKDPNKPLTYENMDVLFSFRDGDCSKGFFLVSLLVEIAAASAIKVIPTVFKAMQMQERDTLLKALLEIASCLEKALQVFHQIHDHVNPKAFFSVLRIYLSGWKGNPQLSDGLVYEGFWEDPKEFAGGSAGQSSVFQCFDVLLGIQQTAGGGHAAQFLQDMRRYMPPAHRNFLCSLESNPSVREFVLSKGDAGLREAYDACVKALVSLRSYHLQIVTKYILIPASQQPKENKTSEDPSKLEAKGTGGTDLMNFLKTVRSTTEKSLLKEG

Row | pIC50 hIDO biochemical coupled assay [1] | IC50 [2] | IC50 [3] | pIC50 hTDO biochemical coupled assay [4] | Compound
1 | 6.58 | 1.74 µM | > 10 µM | 5.78 | O=C1NC2(CCN(c3cc(C(F)(F)F)cc4cncn34)CC2)C(=O)N1c1ccccc1 [Example 9, 3-Phenyl-8-(7-(trifluoromethyl)imidazo[1,5-a]pyridin-5-yl)-1,3,8-triazaspiro[4.5]decane-2,4-dione]
2 | 7.19 | 0.562 µM | > 10 µM | 6.29 | O=C1NC(=O)C2(CCN(c3cc(Br)cc4cncn34)CC2)N1 [Example 2, 8-(7-Bromoimidazo[1,5-a]pyridin-5-yl)-1,3,8-triazaspiro[4.5]decane-2,4-dione]
3 | 5.99 | 4.79 µM | > 10 µM | 5.84 | O=C1NC(=O)C2(CCN(c3cc(C(F)(F)F)cn4cncc34)CC2)N1 [Example 4, 8-(6-(Trifluoromethyl)imidazo[1,5-a]pyridin-8-yl)-1,3,8-triazaspiro[4.5]decane-2,4-dione]
4 | 5.74 | 1.17 µM | 0.661 µM | 6.1 | CC1(C)CN(c2cc(C(F)(F)F)cn3cncc23)CCC12NC(=O)NC2=O (stereo not drawn) [Example 12, 6,6-Dimethyl-8-(6-(trifluoromethyl)imidazo[1,5-a]pyridin-8-yl)-1,3,8-triazaspiro[4.5]decane-2,4-dione]
5 | 5.92 | 4.68 µM | > 10 µM | 4.78 | CC1(C)CN(c2cc(C(F)(F)F)cc3cncn23)CCC12NC(=O)N(CC1CCOCC1)C2=O (stereo not drawn) [Example 14, 6,6-dimethyl-3-((tetrahydro-2H-pyran-4-yl)methyl)-8-(7-(trifluoromethyl)imidazo[1,5-a]pyridin-5-yl)-1,3,8-triazaspiro[4.5]decane-2,4-dione]
6 | 6.2 | 7.76 µM | > 10 µM | 5.57 | CN1C(=O)NC2(CCN(c3cc(C(F)(F)F)cc4cncn34)CC2(C)C)C1=O (stereo not drawn) [Example 10, 3,6,6-Trimethyl-8-(7-(trifluoromethyl)imidazo[1,5-a]pyridin-5-yl)-1,3,8-triazaspiro[4.5]decane-2,4-dione]
7 | 7.53 | 0.617 µM | > 10 µM | 5.6 | O=C1NC(=O)C2(CCN(c3cc(C(F)(F)F)cc4cncn34)CC2)N1 [Example 1, 8-(7-(Trifluoromethyl)imidazo[1,5-a]pyridin-5-yl)-1,3,8-triazaspiro[4.5]decane-2,4-dione]
8 | 5.92 | 3.63 µM | 10 µM | 5.4 | O=C1NC2(CCN(c3cc(C(F)(F)F)cc4cncn34)CC2)C(=O)N1CC1CCOCC1 [Example 7, 3-((Tetrahydro-2H-pyran-4-yl)methyl)-8-(7-(trifluoromethyl)imidazo[1,5-a]pyridin-5-yl)-1,3,8-triazaspiro[4.5]decane-2,4-dione]
9 | 6.99 | 3.72 µM | 2.09 µM | 6.33 | CC1(C)CN(c2cc(Cl)cc3cncn23)CCC12NC(=O)NC2=O (stereo not drawn) [Example 11, 8-(7-Chloroimidazo[1,5-a]pyridin-5-yl)-6,6-dimethyl-1,3,8-triazaspiro[4.5]decane-2,4-dione]
10 | 5.66 | 5.62 µM | > 10 µM | 4.42 | CC1(C)CN(c2cc(C(F)(F)F)cc3cncn23)CCC12NC(=O)N(c1ccccc1)C2=O (stereo not drawn) [Example 15, 6,6-Dimethyl-3-phenyl-8-(7-(trifluoromethyl)imidazo[1,5-a]pyridin-5-yl)-1,3,8-triazaspiro[4.5]decane-2,4-dione]
11 | – | 0.2 µM | 7.94 µM | – | CC1(C)CN(c2cc(Cl)cc3cncn23)CCC12NC(=O)NC2=O (stereo not drawn) [Example 8, 8-(7-Chloroimidazo[1,5-a]pyridin-5-yl)-6,6-dimethyl-1,3,8-triazaspiro[4.5]decane-2,4-dione]
